According to patent US12084431B2, “Pharmaceutical salts of pyrimidine derivatives and method of treating disorders” (ARIAD Pharmaceuticals, Inc., priority 2018, dated 2024):

Legend:
[1] = Stability stress testing (ambient light, 40° C./75% RH, 80° C., 7 days; XRPD and HPLC purity); assay type: physicochemical; details: for XRPD after storage: 7 days; for Purity, 40° C./75% RH / Purity, 80° C. / Purity, Ambient light: HPLC purity after 7 days, open vial; for Purity, Ambient light: room temperature; for Input purity: HPLC purity before stress storage; for Chemical Stability: summary in Table 17
Experimental: Approximately 5 mg of the appropriate samples were placed into 2 mL clear glass vials and the vials were all stored open under the conditions of ambient light, 40° C./75% RH, and 80° C. for 7 days, respectively. The ambient light sample was left open on the bench at room temperature. The 80° C. sample was placed open into an 80° C. oven.

[2] = Vapour sorption analysis (GVS, hygroscopicity); assay type: physicochemical; details: % uptake at 90% RH
Experimental: Approximately 10 mg of the sample was placed into a mesh vapor sorption balance pan and loaded into an IGASorp Moisture Sorption Analyzer balance by Hiden Analytical. The sample was subjected to a ramping profile from 40 to 90% relative humidity (RH) at 10% increments to 90% RH, maintaining the sample at each step until a stable weight had been achieved (98% step completion). After completion of the sorption cycle, the sample was dried using the same procedure (initially from 90% RH to 0% RH and finally taken back to the starting point of 40% RH). The sorption/desorption profiles were then repeated to give a double-cycle plot. The weight changes during the sorption/desorption cycles were plotted, allowing for the hygroscopic nature of the sample to be determined.

[3] = Thermodynamic aqueous solubility studies (de-ionized water, 24 h, HPLC concentration, filtrate pH, XRPD of solid); details: for solubility at 24 h: de-ionized water, pH 6.97, water, thermodynamic from solid; for pH at Saturation: pH of filtrate after 24 h slurry in de-ionized water (pH 6.97), ambient temperature
Experimental: The resulting solid material was isolated by centrifugation and analyzed by XRPD, while the filtrate was analyzed by HPLC for concentration determination. The pH of the resulting filtrate was also determined.

[4] = Solubility in Water, de-ionized water (pH 6.97), slurry shaken at ambient temperature for 24 h, filtrate by HPLC, salts of Compound (A)
[5] = all storage conditions (ambient light, 40° C./75% RH, 80° C.)
[6] = other 2 conditions (40° C./75% RH and 80° C.)

Row | Compound | XRPD after storage ([1]; ambient light) | Purity, 40° C./75% RH [1] | Purity, 80° C. [1] | Purity, Ambient light ([1]; ambient light) | Input purity [1] | Chemical Stability [1] | GVS (Hygroscopicity) [2] | solubility at 24 h [3, 4] [µg/mL] | pH at Saturation [3] | XRPD after storage [1, 5] | solubility at 24 h [3] [µg/mL] | XRPD after storage [1, 6]
1 | C=CC(=O)Nc1cc(Nc2ncc(C(=O)OC(C)C)c(-c3cn(C)c4ccccc34)n2)c(OC)cc1N(C)CCN(C)C.CS(=O)(=O)O [Mesylate, isopropyl 2-((5-acrylamido-4-((2-(dimethylamino)ethyl) (methyl)amino)-2-methoxyphenyl)amino)-4-(1-methyl-1H-indol-3-yl)pyrimidine-5-carboxylate mesylate] | No change at ambient light; | 99.6 | 99.6 | 99.6 | 99.7 | Stable | Drying Form | > 70000 | 2.90 | – | – | –
2 | C=CC(=O)Nc1cc(Nc2ncc(C(=O)OC(C)C)c(-c3cn(C)c4ccccc34)n2)c(OC)cc1N(C)CCN(C)C.O=C(O)/C=C/C(=O)O [Fumarate, isopropyl 2-((5-acrylamido-4-((2-(dimethylamino)ethyl) (methyl)amino)-2-methoxyphenyl)amino)-4-(1-methyl-1H-indol-3-yl)pyrimidine-5-carboxylate fumarate] | – | 99.5 | 99.5 | 99.5 | 99.7 | Stable | 2.0% | 100 | 3.98 | No change under all storage | – | –
3 | C=CC(=O)Nc1cc(Nc2ncc(C(=O)OC(C)C)c(-c3cn(C)c4ccccc34)n2)c(OC)cc1N(C)CCN(C)C.O=S(=O)(O)O [Sulfate, isopropyl 2-((5-acrylamido-4-((2-(dimethylamino)ethyl) (methyl)amino)-2-methoxyphenyl)amino)-4-(1-methyl-1H-indol-3-yl)pyrimidine-5-carboxylate sulfate] | No change at ambient light; | 96.2 | 94.9 | 98.6 | 98.3 | Degradation | 11% | – | 2.19 | – | > 240000 | –
4 | Br.C=CC(=O)Nc1cc(Nc2ncc(C(=O)OC(C)C)c(-c3cn(C)c4ccccc34)n2)c(OC)cc1N(C)CCN(C)C [HBr, isopropyl 2-((5-acrylamido-4-((2-(dimethylamino)ethyl) (methyl)amino)-2-methoxyphenyl)amino)-4-(1-methyl-1H-indol-3-yl)pyrimidine-5-carboxylate hydrobromide] | – | 99.6 | 99.5 | 99.6 | 99.7 | Stable | 0.6% | 100 | 6.30 | No change under all storage | – | –
5 | C=CC(=O)Nc1cc(Nc2ncc(C(=O)OC(C)C)c(-c3cn(C)c4ccccc34)n2)c(OC)cc1N(C)CCN(C)C.O=C(O)C(=O)O [Oxalate, isopropyl 2-((5-acrylamido-4-((2-(dimethylamino)ethyl) (methyl)amino)-2-methoxyphenyl)amino)-4-(1-methyl-1H-indol-3-yl)pyrimidine-5-carboxylate oxalate] | No change at ambient light; | 99.6 | 99.6 | 99.6 | 99.7 | Stable | 2.0% | 6800 | 3.00 | – | – | minor changes observed in
6 | C=CC(=O)Nc1cc(Nc2ncc(C(=O)OC(C)C)c(-c3cn(C)c4ccccc34)n2)c(OC)cc1N(C)CCN(C)C.Cl [HCl, isopropyl 2-((5-acrylamido-4-((2-(dimethylamino)ethyl) (methyl)amino)-2-methoxyphenyl)amino)-4-(1-methyl-1H-indol-3-yl)pyrimidine-5-carboxylate hydrochloride] | No change at ambient light; | 74.5 | 91.3 | 95.1 | 99.0 | Degradation | 10.% | 5800 | 6.47 | – | – | changes observed in other 2
7 | C=CC(=O)Nc1cc(Nc2ncc(C(=O)OC(C)C)c(-c3cn(C)c4ccccc34)n2)c(OC)cc1N(C)CCN(C)C [Free Base, isopropyl 2-((5-acrylamido-4-((2-(dimethylamino)ethyl) (methyl)amino)-2-methoxyphenyl)amino)-4-(1-methyl-1H-indol-3-yl)pyrimidine-5-carboxylate] | – | 99.5 | 99.5 | 99.5 | – | – | 0.3% | – | 7.81 | – | < 10 | –
8 | isopropyl 2-((5-acrylamido-4-((2-(dimethylamino)ethyl) (methyl)amino)-2-methoxyphenyl)amino)-4-(1-methyl-1H-indol-3-yl)pyrimidine-5-carboxylate hippurate | – | – | 99.6 | 99.6 | 99.7 | Stable | 0.2% | – | – | No change under all storage | – | –
